Assay: Viscosity by Brookfield DV-II viscometer
Type: physicochemical
Conditions: 50 wt % product, spindle 34, 10 to 40° C.; compared to Na4 GLDA; data in FIG. 1
Method: After addition of the KOH (45% sol) and the NaOH (50% sol) solution the products were subjected to evaporation to isolate an alkalimetal salt of glutamic acid-N,N-diacetic acid product having a concentration of 50 wt %.
The viscosity of the alkalimetal salt of glutamic acid-N,N-diacetic acid products prepared in Examples 1a-e was determined using a Brookfield DV-II viscometer with a spindle 34 at a temperature of 10 to 40° C.

Row | Structure (SMILES) | viscosity
1 | O=C([O-])CC[C@@H](C(=O)[O-])N(CC(=O)[O-])CC(=O)[O-].[K+].[K+].[Na+].[Na+] [Na2K2 GLDA] | significantly lower viscosity
2 | O=C(O)CC[C@@H](C(=O)O)N(CC(=O)O)CC(=O)O.[K].[Na].[Na].[Na] [Na3K GLDA, monopotassium trisodium glutamic acid-N,N-diacetic acid] | significantly lower viscosity
